# Literature values as cited in patent US10011626B2, “Method for the purification of decitabine” (Johnson Matthey Public Limited Company, priority 2012, dated 2018).
smiles,measurement,setting,value
"Nc1ncn([C@H]2CC(O)[C@@H](CO)O2)c(=O)n1 (stereo partly drawn) [decitabine, 4-amino-1-(2-deoxy-β-D-erythropentofuranosyI)-1,3,5-triazin-2-(1H)-one]","solubility in 1,1,1,3,3,3-hexafluoro-2-propanol","solvent: 1,1,1,3,3,3-hexafluoro-2-propanol, slightly soluble",about 18 mg/mL
same,solubility in methyl sulfoxide,solvent: methyl sulfoxide,approximately 37 mg/mL
same,solubility in water,"solvent: water, sparingly soluble",about 8 mg/mL
